According to article PMC4996523, “Biophysical and Pharmacological Characterization of Nav1.9 Voltage Dependent Sodium Channels Stably Expressed in HEK-293 Cells” (PLoS ONE, 2016):
Values joined by “and” are separate entries in the source; they are usually repeats but may differ in a detail not shown here. Equal values may be shown once. “Also recorded” adds a separate entry of the source. Read-outs that look alike come from different tables or passages of the source.

What was measured:
Assay type in all cases: cell-based
Human Nav1.9 = biological target: T1, Human Nav1.9 (Homo sapiens, UniProt Q9UI33); assay: PatchXpress whole-cell voltage clamp, inhibition of human Nav1.9 (+β1/β2) currents in HEK-293 cells; design: key to Activity on human Nav1.9 at single concentration: NA = not active; conditions: for Increase in potency at the most depolarized membrane potential: -90 mV vs -140 mV (resting to half-inactivated channels)
T1 construct: expressed in transfected cells; host or cells: HEK-293 stably expressing human β1/β2
T1 sequence (Q9UI33 whole entry): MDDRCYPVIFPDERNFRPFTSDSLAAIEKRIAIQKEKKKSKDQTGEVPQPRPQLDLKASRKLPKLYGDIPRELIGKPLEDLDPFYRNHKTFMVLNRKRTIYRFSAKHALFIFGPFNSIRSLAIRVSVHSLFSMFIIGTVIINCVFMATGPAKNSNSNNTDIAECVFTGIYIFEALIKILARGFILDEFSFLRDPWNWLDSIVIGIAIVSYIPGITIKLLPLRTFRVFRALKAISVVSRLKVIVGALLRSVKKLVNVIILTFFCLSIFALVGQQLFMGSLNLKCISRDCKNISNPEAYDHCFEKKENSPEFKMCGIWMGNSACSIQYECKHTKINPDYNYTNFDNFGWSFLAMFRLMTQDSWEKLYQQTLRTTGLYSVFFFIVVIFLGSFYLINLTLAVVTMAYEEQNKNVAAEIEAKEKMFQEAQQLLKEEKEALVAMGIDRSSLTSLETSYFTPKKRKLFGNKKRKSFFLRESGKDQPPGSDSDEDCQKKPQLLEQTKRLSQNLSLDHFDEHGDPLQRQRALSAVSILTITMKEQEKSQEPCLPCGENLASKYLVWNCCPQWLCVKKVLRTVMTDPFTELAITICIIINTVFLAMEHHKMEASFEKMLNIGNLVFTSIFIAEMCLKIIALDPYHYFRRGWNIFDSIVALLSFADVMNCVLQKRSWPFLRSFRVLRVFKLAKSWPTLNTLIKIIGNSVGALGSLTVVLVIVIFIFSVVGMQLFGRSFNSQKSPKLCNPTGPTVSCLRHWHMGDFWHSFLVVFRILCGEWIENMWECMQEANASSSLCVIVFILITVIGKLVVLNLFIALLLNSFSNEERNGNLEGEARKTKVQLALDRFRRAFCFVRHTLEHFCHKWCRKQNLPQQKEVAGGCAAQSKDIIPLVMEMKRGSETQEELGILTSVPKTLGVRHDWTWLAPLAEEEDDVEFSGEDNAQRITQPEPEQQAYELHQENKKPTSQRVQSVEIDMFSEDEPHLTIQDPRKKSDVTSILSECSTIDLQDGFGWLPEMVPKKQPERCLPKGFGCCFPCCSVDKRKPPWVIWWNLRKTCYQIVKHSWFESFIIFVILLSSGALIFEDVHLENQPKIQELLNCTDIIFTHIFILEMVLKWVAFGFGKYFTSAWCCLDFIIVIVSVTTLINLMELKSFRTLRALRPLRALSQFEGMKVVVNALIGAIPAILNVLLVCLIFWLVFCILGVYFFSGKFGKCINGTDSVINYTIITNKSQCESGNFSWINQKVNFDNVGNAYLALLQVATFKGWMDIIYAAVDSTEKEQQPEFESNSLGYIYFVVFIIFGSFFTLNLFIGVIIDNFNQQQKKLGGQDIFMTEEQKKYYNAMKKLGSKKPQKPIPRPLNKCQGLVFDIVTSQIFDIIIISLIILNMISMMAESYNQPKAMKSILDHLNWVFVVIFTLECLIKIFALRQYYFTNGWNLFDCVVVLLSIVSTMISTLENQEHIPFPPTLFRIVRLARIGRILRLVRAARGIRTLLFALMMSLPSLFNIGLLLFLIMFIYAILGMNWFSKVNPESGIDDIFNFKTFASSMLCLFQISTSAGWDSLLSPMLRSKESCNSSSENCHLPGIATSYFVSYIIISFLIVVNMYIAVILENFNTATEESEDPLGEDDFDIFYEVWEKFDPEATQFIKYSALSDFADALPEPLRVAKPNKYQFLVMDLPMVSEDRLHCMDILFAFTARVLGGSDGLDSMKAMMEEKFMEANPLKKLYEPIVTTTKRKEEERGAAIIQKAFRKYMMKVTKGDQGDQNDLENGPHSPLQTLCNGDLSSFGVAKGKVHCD
T1 sequence (Q07699 19-218 partner): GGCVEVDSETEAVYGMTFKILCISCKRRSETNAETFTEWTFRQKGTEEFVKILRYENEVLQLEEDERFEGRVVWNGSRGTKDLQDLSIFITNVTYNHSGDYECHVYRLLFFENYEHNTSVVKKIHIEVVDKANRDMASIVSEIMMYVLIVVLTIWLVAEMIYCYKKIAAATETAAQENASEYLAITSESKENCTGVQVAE

[1] = biological target: T2, Human Nav1.9 F1592A/Y1599A (Homo sapiens, UniProt Q9UI33, F1592A/Y1599A); assay: PatchXpress whole-cell voltage clamp, inhibition of the human Nav1.9 F1592A/Y1599A local anesthetic site mutant in HEK-293 cells; conditions: for IC50: read-out: IC50 for inhibition of human Nav1.9 F1592A/Y1599A (LAM)
T2 construct: expressed in transfected cells; host or cells: HEK-293-β1/β2
T2 sequence (Q9UI33 whole entry F1592A/Y1599A): as the sequence (Q9UI33 whole entry) above, with F1592A, Y1599A counted along it
T2 sequence (Q07699 19-218 partner): as the sequence (Q07699 19-218 partner) above

Human Nav1.7 = biological target: T3, Human Nav1.7 (Homo sapiens, UniProt Q15858); assay: PatchXpress whole-cell voltage clamp, inhibition of human Nav1.7 in HEK-293 cells
T3 construct: expressed in transfected cells; host or cells: HEK-293-β1/β2
T3 sequence (Q15858 1-1977 isoform Q15858-3): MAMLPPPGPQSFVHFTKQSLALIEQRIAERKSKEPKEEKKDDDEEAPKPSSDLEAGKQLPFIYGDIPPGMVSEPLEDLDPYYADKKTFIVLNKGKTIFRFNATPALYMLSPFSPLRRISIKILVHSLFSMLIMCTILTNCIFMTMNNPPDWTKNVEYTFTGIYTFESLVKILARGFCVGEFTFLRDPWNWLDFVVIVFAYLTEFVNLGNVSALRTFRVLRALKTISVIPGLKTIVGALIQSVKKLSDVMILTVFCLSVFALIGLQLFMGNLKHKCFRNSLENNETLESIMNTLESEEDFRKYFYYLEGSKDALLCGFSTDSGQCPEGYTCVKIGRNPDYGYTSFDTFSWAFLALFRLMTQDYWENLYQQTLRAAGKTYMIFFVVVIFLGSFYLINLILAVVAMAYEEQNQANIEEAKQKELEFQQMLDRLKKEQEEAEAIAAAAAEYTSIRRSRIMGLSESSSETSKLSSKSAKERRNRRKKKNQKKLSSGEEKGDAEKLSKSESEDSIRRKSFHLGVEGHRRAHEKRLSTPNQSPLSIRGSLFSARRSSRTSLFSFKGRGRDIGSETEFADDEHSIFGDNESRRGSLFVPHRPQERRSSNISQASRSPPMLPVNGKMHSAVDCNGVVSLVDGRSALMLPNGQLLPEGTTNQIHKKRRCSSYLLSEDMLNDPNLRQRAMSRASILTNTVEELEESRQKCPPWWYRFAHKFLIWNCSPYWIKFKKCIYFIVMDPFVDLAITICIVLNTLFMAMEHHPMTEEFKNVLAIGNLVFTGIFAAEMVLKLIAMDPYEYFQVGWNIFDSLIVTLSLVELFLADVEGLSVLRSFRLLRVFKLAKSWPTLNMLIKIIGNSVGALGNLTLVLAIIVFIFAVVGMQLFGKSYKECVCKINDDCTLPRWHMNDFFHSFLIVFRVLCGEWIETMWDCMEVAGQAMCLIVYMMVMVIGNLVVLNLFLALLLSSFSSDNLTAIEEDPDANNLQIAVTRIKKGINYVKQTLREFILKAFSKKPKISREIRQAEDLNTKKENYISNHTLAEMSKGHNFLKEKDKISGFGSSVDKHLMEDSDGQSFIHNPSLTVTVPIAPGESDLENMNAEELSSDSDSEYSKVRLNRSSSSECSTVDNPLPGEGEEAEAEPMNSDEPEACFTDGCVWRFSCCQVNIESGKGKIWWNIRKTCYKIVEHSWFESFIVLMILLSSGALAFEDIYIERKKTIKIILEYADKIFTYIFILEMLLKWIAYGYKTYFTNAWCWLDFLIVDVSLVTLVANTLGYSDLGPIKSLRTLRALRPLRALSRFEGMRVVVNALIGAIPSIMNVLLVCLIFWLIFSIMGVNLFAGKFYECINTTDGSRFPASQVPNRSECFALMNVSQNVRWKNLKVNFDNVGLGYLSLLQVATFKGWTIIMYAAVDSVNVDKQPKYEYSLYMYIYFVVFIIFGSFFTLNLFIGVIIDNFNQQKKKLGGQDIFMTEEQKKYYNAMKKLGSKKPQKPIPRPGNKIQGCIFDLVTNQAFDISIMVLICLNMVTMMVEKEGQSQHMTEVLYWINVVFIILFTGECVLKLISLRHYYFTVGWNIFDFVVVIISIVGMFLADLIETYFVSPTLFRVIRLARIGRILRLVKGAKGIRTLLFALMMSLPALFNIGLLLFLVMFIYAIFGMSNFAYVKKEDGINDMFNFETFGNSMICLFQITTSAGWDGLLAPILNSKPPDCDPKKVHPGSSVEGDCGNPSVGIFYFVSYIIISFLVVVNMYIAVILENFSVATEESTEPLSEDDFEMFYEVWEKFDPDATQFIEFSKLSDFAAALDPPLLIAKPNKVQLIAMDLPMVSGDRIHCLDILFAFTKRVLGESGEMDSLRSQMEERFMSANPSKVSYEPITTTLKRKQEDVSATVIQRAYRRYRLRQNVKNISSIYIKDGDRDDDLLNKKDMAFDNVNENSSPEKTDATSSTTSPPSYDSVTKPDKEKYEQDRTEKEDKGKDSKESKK
T3 sequence (Q07699 19-218 partner): as the sequence (Q07699 19-218 partner) above
T3 sequence (O60939 30-215 partner): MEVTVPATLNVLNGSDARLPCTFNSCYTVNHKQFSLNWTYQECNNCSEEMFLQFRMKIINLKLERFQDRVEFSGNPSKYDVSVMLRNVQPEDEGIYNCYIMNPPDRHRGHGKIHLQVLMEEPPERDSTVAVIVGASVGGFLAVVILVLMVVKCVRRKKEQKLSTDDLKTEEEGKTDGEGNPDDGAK

Nav1.9 K799N = biological target: T4, Nav1.9 K799N (Homo sapiens, UniProt Q9UI33, K799N); assay: PatchXpress whole-cell voltage clamp, inhibition of the human Nav1.9 K799N mutant in HEK-293 cells; conditions: for IC50: protocol of Fig 2
T4 construct: expressed in transfected cells; host or cells: HEK-293-β1/β2
T4 sequence (Q9UI33 whole entry K799N): as the sequence (Q9UI33 whole entry) above, with K799N counted along it
T4 sequence (Q07699 19-218 partner): as the sequence (Q07699 19-218 partner) above

Nav1.7 N945K = biological target: T5, Nav1.7 N945K (Homo sapiens, UniProt Q15858, N956K); assay: PatchXpress whole-cell voltage clamp, inhibition of the human Nav1.7 N945K mutant in HEK-293 cells
T5 construct: expressed in transfected cells; host or cells: HEK-293-β1/β2
T5 sequence (Q15858 1-1977 isoform Q15858-3 N945K): as the sequence (Q15858 1-1977 isoform Q15858-3) above, with N945K counted along it
T5 sequence (Q07699 19-218 partner): as the sequence (Q07699 19-218 partner) above
T5 sequence (O60939 30-215 partner): as the sequence (O60939 30-215 partner) above

Human Nav1.8 = Human Nav1.8 (Homo sapiens, UniProt Q9Y5Y9); assay: Whole-cell voltage clamp, inhibition of human Nav1.8; conditions: ~50% inactivated
Rat Nav1.9 = biological target: T6, Rat Nav1.9 (Rattus norvegicus, UniProt O88457); assay: PatchXpress whole-cell voltage clamp, inhibition of rat Nav1.9 (+rat β1/β2) in HEK-293 cells
T6 construct: expressed in transfected cells; host or cells: HEK-293-rat β1/β2

Mouse Nav1.9 = biological target: T7, Mouse Nav1.9 (Mus musculus, UniProt Q9R053); assay: PatchXpress whole-cell voltage clamp, inhibition of mouse Nav1.9 (+mouse β1/β2) in HEK-293 cells
T7 construct: expressed in transfected cells; host or cells: HEK-293-mouse β1/β2

[2] = holding potential -120 mV (~25% inactivation), 40 ms step to -40 mV every 20 s, HEK-293 + β1/β2, 500 μM GTP-γ-S in pipette, read-out: IC50 for inhibition of human Nav1.9
[3] = Nav1.9 F1592A/Y1599A vs Nav1.9 WT

COc1cc(NC(=O)c2ccc(-c3ccc(Cl)cc3)o2)cc(OC)c1 [A-803467]
Inhibition of human Nav1.9 at single concentration (Human Nav1.9; 10 μM): 30% @ 10 μM

CN(C)CCC=C1c2ccccc2CCc2ccccc21 [Amitriptyline]
IC50 (Human Nav1.9; [2]): 29 µM
IC50 ([1]; same protocol as Nav1.9 WT): 0.105 mM

CCOC(=O)c1ccc(N)cc1 [Benzocaine]
IC50 (Human Nav1.9; [2]): 351 µM
IC50 (Human Nav1.9; in figure, holding potential -120 mV, read-out: IC50 for inhibition of human Nav1.9 WT): 400 µM
Effect of the F1592A/Y1599A mutation on Nav1.9 inhibition [1, 3]: reduced
Reduction in potency by the F1592A/Y1599A mutation [1, 3]: 5 fold
IC50 ([1]; in figure): 1.8 mM
IC50 ([1]; same protocol as Nav1.9 WT): 1.76 mM
IC50 (Human Nav1.7; in figure, read-out: IC50 for inhibition of Nav1.7 WT): 130 µM
IC50 (Human Nav1.7; wild type, ~50% inactivated, read-out: IC50 for inhibition of human Nav1.7): 133 µM
Effect of the K799N mutation on potency (Nav1.9 K799N; Nav1.9 K799N vs Nav1.9 WT): unaffected
IC50 (Nav1.9 K799N; in figure): 300 µM
Effect of the N945K mutation on sensitivity (Nav1.7 N945K; Nav1.7 N945K vs Nav1.7 WT): no shift; also recorded: unchanged
IC50 (Nav1.7 N945K; in figure): 180 µM

CCCCN1CCCCC1C(=O)Nc1c(C)cccc1C (centres unmarked) [Bupivacaine]
IC50 (Human Nav1.9; [2]): 186 µM

[Cl][Cd][Cl] [CdCl2]
Activity on human Nav1.9 at single concentration (Human Nav1.9; 100 μM): NA @ 100 μM

O=C(NCC1CCCCN1)c1cc(OCC(F)(F)F)ccc1OCC(F)(F)F (centres unmarked) [Flecainide]
IC50 (Human Nav1.9; [2]): 244 µM

O=C(Nc1ccc(S(=O)(=O)Nc2nccs2)cc1)C(c1ccccc1)c1ccccc1 [ICA-121431]
Activity on human Nav1.9 at single concentration (Human Nav1.9; 10 μM): NA @ 10 μM

Nc1nnc(-c2cccc(Cl)c2Cl)c(N)n1 [Lamotrigine]
IC50 (Human Nav1.9; [2]): 199 µM

CCN(CC)CC(=O)Nc1c(C)cccc1C [Lidocaine]
IC50 (Human Nav1.9; [2]): 356 µM
Effect of the F1592A/Y1599A mutation on Nav1.9 inhibition [1]: reduced
IC50 ([1]; same protocol as Nav1.9 WT): 5.55 mM

Cc1cccc(C)c1OCC(C)N (centres unmarked) [Mexiletine]
IC50 (Human Nav1.9; [2]): 270 µM
Effect of the F1592A/Y1599A mutation on Nav1.9 inhibition [1, 3]: reduced
IC50 ([1]; same protocol as Nav1.9 WT): 0.837 mM
IC50 (Human Nav1.8): 18 µM

COCC(=O)O[C@]1(CCN(C)CCCc2nc3ccccc3[nH]2)CCc2cc(F)ccc2[C@@H]1C(C)C [Mibefradil]
Activity on human Nav1.9 at single concentration (Human Nav1.9; 10 μM): NA @ 10 μM

COCCOC(=O)C1=C(C)NC(C)=C(C(=O)OC(C)C)C1c1cccc([N+](=O)[O-])c1 (centres unmarked) [Nimodipine]
IC50 (Human Nav1.9; [2]): 33 µM

CC(=O)Nc1cccc(Nc2ncnc(N3CCC(OCc4ccc(OC(F)(F)F)cc4)CC3)n2)c1C [TC-N 1752]
Effect of the F1592A/Y1599A mutation on Nav1.9 inhibition [1, 3]: essentially abolished
Decrease in potency by the K799N mutation (Nav1.9 K799N; Nav1.9 K799N vs Nav1.9 WT): 5.6 fold and ~ 6 fold

NC1=N[C@H](O)[C@H]2[C@H]3O[C@]4(O)O[C@@H]([C@@H](O)[C@@]2(N1)[C@@H]4O)[C@]3(O)CO [TTX, tetrodotoxin]
Activity on human Nav1.9 at single concentration (Human Nav1.9): NA @ 10 μM
Sensitivity of peak inward Nav1.9 current to inhibition (Human Nav1.9): insensitive

CCCCNc1ccc(C(=O)OCCN(C)C)cc1 [Tetracaine]
Increase in potency at the most depolarized membrane potential (Human Nav1.9): ~3 fold
Increase in potency at the most depolarized membrane potential (Human Nav1.9; listed as tetracaine): no more than 3 fold
IC50 (Human Nav1.9; holding potential -90 mV, read-out: IC50 for inhibition of Nav1.9 at holding potential -90 mV): 17 µM
IC50 (Human Nav1.9; holding potential -100 mV, read-out: IC50 for inhibition of Nav1.9 at holding potential -100 mV): 22 µM
IC50 (Human Nav1.9; [2]): 31.7 µM and 32 µM
IC50 (Human Nav1.9; holding potential -120 mV, Fig 2B holding potential series, read-out: IC50 for inhibition of Nav1.9 at holding potential -120 mV): 31 µM
IC50 (Human Nav1.9; holding potential -140 mV, read-out: IC50 for inhibition of Nav1.9 at holding potential -140 mV): 54 µM
IC50 ([1]; same protocol as Nav1.9 WT): 0.177 mM
IC50 (Human Nav1.8): 0.3 µM
IC50 (Rat Nav1.9): 7.6 µM
IC50 (Mouse Nav1.9): 12 µM
Increase in potency by the K799N mutation (Nav1.9 K799N; Nav1.9 K799N vs Nav1.9 WT): 3 fold
IC50 (Nav1.9 K799N): 10.3 µM and 10 µM
Decrease in sensitivity by the N945K mutation (Nav1.7 N945K; Nav1.7 N945K vs Nav1.7 WT): 3 fold
